# Tests used:
# [1] = tested on: AT8 (phospho-Tau S202/T205); assay: Immunofluorescence staining of brain tissue (AT8) for tau hyperphosphorylation; format: in vivo, mouse; conditions: GV2002 2 mg/kg subcutaneous, 3 times/week, 21 weeks
# Method: (§1) In vivo experiments were performed on the 4R tauopathy mouse groups shown in FIG. 4 according to the schedule shown in FIG. 5 and the outline in Table 3 below.
# The brains of a 4R tauopathy mouse model administered GV2002 for 5 months, from 7.5 to 12.5 months of age, were removed and analyzed using immunofluorescence staining.
# For brain tissue sampling, the 4R tauopathy mouse models were anesthetized, and saline was perfused intracardially, after which the blood was removed using a perfusion pump device. Then, the brains were removed and weighed. The brains to be used for tissue staining experiments were fixed in a 4% PFA solution for 24 hours. The fixed brain tissue was immersed in a 20% sucrose solution for 24 hours and then in a 30% sucrose solution for 48 hours for dehydration. The dehydrated brain tissue was removed, excess moisture was eliminated, and the brain tissue and a cryoembedding agent (OCT compound) were placed together in a mold to protect the tissue, after which the brain tissue was rapidly frozen using dry ice. The frozen brain tissue mold was stored in a -80 °C freezer. Afterwards, the brain tissue was sectioned into 30-µm-thick sections using a cryostat and stored in a 0.05% sodium azide solution.
# For immunofluorescence staining of brain tissue, 30-µm-thick frozen brain sections were selected according to brain region, washed three times with PBS for 10 minutes each, fixed in 3.7% formaldehyde for 5 minutes, and washed three times with PBS for 10 minutes each. The brain tissue samples were permeabilized in 0.3% PBS-T solution, and then blocked in 5% BSA solution in PBS for 1 hour. The brain tissues were incubated overnight in 3% BSA and 0.1% Tween-20 solution in PBS containing AT8 (phospho-Tau S202/T205) antibody diluted at a ratio of 1:200, which targets tau hyperphosphorylation. The brain tissues were washed three times with PBS for 10 minutes each. The brain tissues were then incubated for 1 hour at room temperature in 3% BSA and 0.1% Tween-20 solution in PBS containing secondary antibody diluted 1:500. The brain tissues were immersed in PBS solution and washed once for 10 minutes. […] The brain tissues were immersed in PBS solution and washed three times for 10 minutes each, and fluorescence imaging was performed using a slide scanner.
# To obtain fluorescence images of the stained brain tissue, brain tissue slides were scanned using a Zeiss Axio Scan (Zeiss, Oberkochen, Germany). AT8 fluorescence levels in each brain tissue region obtained through fluorescence imaging, i.e., the somatosensory cortex, hippocampus (CA1), motor cortex, and substantia nigra, were calculated using ImageJ software (NIH). The calculated values were analyzed using one-way ANOVA with Dunnett's multiple comparisons test.
# [2] = tested on: 4R Tau^P301L-BiFC mouse; assay: Rota-rod experiment in 4R tauopathy mouse model; format: in vivo; conditions: 3 times/week, 21 weeks
# Method: as §1
# Rota-rod experiments were conducted on mice with 4R tauopathy treated with GV2002 for five months, from 7.5 to 12.5 months of age, to evaluate the efficacy of GV2002 in alleviating impairment in motor ability.
# On day 1, acclimation training was conducted, and on day 2, behavioral testing was conducted. Prior to acclimation training and behavioral testing, mice were allowed to acclimate to the testing environment for one hour. During acclimation training, mice walked on a […] at a speed ranging from 5 to 25 rpm for 300 seconds, and any mouse that lost its balance and fell to the floor was allowed to walk again. […] The measured values were analyzed using a two-way ANOVA with Dunnett's multiple comparisons test.
# [3] = Pharmacokinetic profile in rats (intravenous and subcutaneous administration); format: in vivo; conditions: Sprague Dawley rats
# Method: To determine the pharmacokinetic profile of GV2002 prepared in Example 1, plasma was collected from rats administered with GV2002. The collected plasma was pretreated by protein precipitation using nine times the volume of methanol containing 0.1% formic acid, followed by centrifugation at 16,100 g for 10 minutes.
# (§2) GV2002 was administered intravenously (IV) to three Sprague Dawley rats per group. Blood samples were collected at 0.033, 0.083, 0.17, 0.25, 0.5, 1, and 2 hours after administration. The collected blood samples were centrifuged to separate plasma, pretreated, and analyzed using LC-MS. Pharmacokinetic parameters were calculated using the non-compartmental analysis model of the Phoenix WinNonlin (Pharsight, ver. 6.4, USA) program.
# as §2, with “subcutaneously (SC)” for “intravenously (IV)”, “of” for “of the”, “(Pharsight” for “(Pharsight,”, “USA).” for “USA) program.”
# [4] = tested on: 4R Tau^P301L-BiFC mouse; assay: Y-maze experiment in 4R tauopathy mouse model; format: in vivo; conditions: GV2002 2 mg/kg subcutaneous, 3 times/week, 21 weeks; 8 minutes Y-maze
# Method: as §1
# Y-maze experiments were conducted on a 4R tauopathy mouse model administered GV2002 for five months, from 7.5 to 12.5 months of age, to evaluate the efficacy of GV2002 in alleviating impairment in spatial memory.
# Prior to the experiment, mice were allowed one hour to acclimate to the testing environment. The mice's behavior was recorded for 8 minutes.
# [5] = tested on: 4R Tau^P301L-BiFC mouse; assay: Open field experiment in 4R tauopathy mouse model; format: in vivo; conditions: GV2002 2 mg/kg subcutaneous, 3 times/week, 21 weeks; 10 minutes open field
# Method: as §1
# Open field experiments were conducted on mice with 4R tauopathy administered GV2002 for five months, from 7.5 to 12.5 months of age, to evaluate the efficacy of GV2002 in alleviating impairment in motor ability.
# To prevent changes in mouse behavioral responses, handling was performed for five days (days 1 to 5) prior to the experiment. Each handling session lasted two minutes. On day 6, mice were placed in a 40 cm × 40 cm enclosure and subjected to an open field experiment for 10 minutes. Prior to the experiment, mice were allowed one hour to acclimate to the testing environment. During the open field experiment, movement trajectories, distance traveled, and movement speed of the mice were recorded. The illumination level was maintained at a constant level throughout the experiment. The recorded values were analyzed using one-way ANOVA with Dunnett's multiple comparisons test.
substance,measurement,setting,value
Ac-EARPALLTSRLRFIPK-NH2 [GV2002],"AT8 fluorescence intensity, reduction compared to the vehicle-administered group",[1]; hippocampus region,62%
same,"AT8 fluorescence intensity, reduction compared to the vehicle-administered group",[1]; motor cortex region,65%
same,"AT8 fluorescence intensity, reduction compared to the vehicle-administered group",[1]; somatosensory cortex region,57%
same,"AT8 fluorescence intensity, reduction compared to the vehicle-administered group",[1]; substantia nigra region,69%
same,motor ability (Rota-rod) compared to the reference compound LMTM-administered group,[2]; GV2002 2 mg/kg subcutaneous vs LMTM 15 mg/kg oral,relatively enhanced motor ability
same,"motor ability (Rota-rod, time until fall) compared to the vehicle-administered group","[2]; GV2002 2 mg/kg subcutaneous, 7.5 to 12.5 months of age",significantly improved motor ability
same,AUC(0-t),"[3]; rat, plasma, intravenous (IV), non-compartmental analysis",438 ng·h/mL
same,in vivo persistence after subcutaneous administration,[3]; subcutaneous (SC),remains in a stable state in vivo without degradation and persists for a long period of time
same,rate of spontaneous alternation behavior compared to the vehicle-administered group,[4],significant increase
same,movement speed in the open space compared to the vehicle-administered group,[5],significantly higher
same,total distance traveled in the open space compared to the vehicle-administered group,[5],significantly higher
